Reference: the supplement of paper PMC11451515

Tests used:
Conditions in all cases: 48 h
[1] = test system: SEM cells; test: cell viability relative to DMSO control; higher = less cytotoxic
Procedure, shortened: (§1)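 NOMO1 or SEM cells were plated at 500 cells/well and P12-Ichikawa cells at 1000 cells/well in 1536-well plates (5 μl), after each leukemia line had been adapted for at least four passages in each medium. Pin dosing delivered library compounds in DMSO at 11 threefold concentrations, 47 μM to 0.79 nM. CellTiter-Glo One luminescence was read after 48 h at 37°C. Viability is reported as a per-plate percentage of DMSO wells, with cell-free wells as background.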

[2] = test system: NOMO1; test: as above
Procedure, shortened: as §1

[3] = test system: P12-Ichikawa; test: as above
Procedure, shortened: as §1

[4] = test system: NOMO1; test: AUC of viability dose-response curve (% viability x log10 dose units); higher = less sensitive
Procedure, shortened: (§2)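 In 1536-well plates, leukemia cells adapted to each medium (500 or 1000 cells/well) were exposed for 48 h at 37°C to library compounds in DMSO across 11 threefold doses, 47 μM down to 0.79 nM. Viability was read by CellTiter-Glo One luminescence and normalised per plate to DMSO and cell-free wells. A four-parameter log-logistic fit over log10 doses was integrated by trapezoidal rule. This yielded the area under the curve, with over-full-viability curves scaled and quality-control failures dropped.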

[5] = test system: P12-Ichikawa; test: as above
Procedure, shortened: as §2

[6] = test system: SEM cells; test: as above
Procedure, shortened: as §2

COc1cc([C@@H]2c3cc4c(cc3[C@@H](O[C@@H]3O[C@@H]5CO[C@@H](C)O[C@H]5[C@H](O)[C@H]3O)[C@H]3COC(=O)[C@H]23)OCO4)cc(OC)c1O
cell viability [%]
Conditions | [1] | [2] | [3]
HPLM + 10% dialyzed FBS, 0.000781 µM | 82.6 | 93.9 | 87.1
HPLM + 10% dialyzed FBS, 0.00234 µM | 71.6 | 98.1 | 89.5
HPLM + 10% dialyzed FBS, 0.00702 µM | 81.1 | 83.4 | 90.2
HPLM + 10% dialyzed FBS, 0.0211 µM | 74.9 | 103 | 80.9
HPLM + 10% dialyzed FBS, 0.0632 µM | 50.7 | 87.5 | 76.8
HPLM + 10% dialyzed FBS, 0.19 µM | 52.7 | 99.9 | 85.8
HPLM + 10% dialyzed FBS, 0.569 µM | 49.2 | 96.3 | 73.1
HPLM + 10% dialyzed FBS, 1.71 µM | 16.1 | 60.3 | 12.1
HPLM + 10% dialyzed FBS, 5.12 µM | 8.68 | 19.3 | 3.56
HPLM + 10% dialyzed FBS, 15.4 µM | 3.97 | 18.1 | 1.85
HPLM + 10% dialyzed FBS, 46.1 µM | 2.91 | 21.6 | 6.17
RPMI 5 mM glucose + 10% FBS, 0.000781 µM | 99.8 | 95.4 | 79.5
RPMI 5 mM glucose + 10% FBS, 0.00234 µM | 96.1 | 84.9 | 86.9
RPMI 5 mM glucose + 10% FBS, 0.00702 µM | 91.8 | 89.9 | 78.2
RPMI 5 mM glucose + 10% FBS, 0.0211 µM | 70.1 | 85.9 | 76
RPMI 5 mM glucose + 10% FBS, 0.0632 µM | 46.4 | 79.1 | 83.6
RPMI 5 mM glucose + 10% FBS, 0.19 µM | 59.6 | 81.1 | 67.6
RPMI 5 mM glucose + 10% FBS, 0.569 µM | 45.1 | 91.4 | 51.7
RPMI 5 mM glucose + 10% FBS, 1.71 µM | 10.9 | 63 | 6.56
RPMI 5 mM glucose + 10% FBS, 5.12 µM | 10.3 | 10.3 | 3.5
RPMI 5 mM glucose + 10% FBS, 15.4 µM | 3.77 | 11.7 | 3.55
RPMI 5 mM glucose + 10% FBS, 46.1 µM | 3.27 | 15.3 | 4.21
RPMI 5 mM glucose + 10% dialyzed FBS, 0.000781 µM | 70.3 | 84.7 | 73.4
RPMI 5 mM glucose + 10% dialyzed FBS, 0.00234 µM | 76 | 76.7 | 78.2
RPMI 5 mM glucose + 10% dialyzed FBS, 0.00702 µM | 76.1 | 80.7 | 84.7
RPMI 5 mM glucose + 10% dialyzed FBS, 0.0211 µM | 64.1 | 85.9 | 78.1
RPMI 5 mM glucose + 10% dialyzed FBS, 0.0632 µM | 37 | 81.7 | 78.7
RPMI 5 mM glucose + 10% dialyzed FBS, 0.19 µM | 35.8 | 82.1 | 74.1
RPMI 5 mM glucose + 10% dialyzed FBS, 0.569 µM | 34.8 | 87.9 | 63.9
RPMI 5 mM glucose + 10% dialyzed FBS, 1.71 µM | 8.52 | 73.7 | 8.76
RPMI 5 mM glucose + 10% dialyzed FBS, 5.12 µM | 5.58 | 15.6 | 4.69
RPMI 5 mM glucose + 10% dialyzed FBS, 15.4 µM | 3.22 | 13.1 | 3.79
RPMI 5 mM glucose + 10% dialyzed FBS, 46.1 µM | 2.28 | 18.9 | 4.42

AUC of viability dose-response curve
Conditions | HPLM + 10% dialyzed FBS | RPMI 5 mM glucose + 10% FBS | RPMI 5 mM glucose + 10% dialyzed FBS
[4] | 345 | 314 | 311
[5] | 268 | 239 | 244

COc1cc(Oc2ccnc3cc(OC)c(OC)cc23)ccc1NC(=O)NC(C)c1nccs1 (stereo not drawn)
AUC of viability dose-response curve
Conditions | [4] | [5] | [6]
HPLM + 10% dialyzed FBS | 444 | 449 | 453
RPMI 5 mM glucose + 10% FBS | 463 | 446 | 440
RPMI 5 mM glucose + 10% dialyzed FBS | 462 | 450 | 439

COC1=C(CC=C(C)C)C2=C(\C=C/C(=O)O2)C=C1
cell viability [%]
Conditions | [1] | [2] | [3]
HPLM + 10% dialyzed FBS, 0.000781 µM | 83.3 | 101 | 84.2
HPLM + 10% dialyzed FBS, 0.00234 µM | 79.7 | 107 | 109
HPLM + 10% dialyzed FBS, 0.00702 µM | 80.4 | 125 | 126
HPLM + 10% dialyzed FBS, 0.0211 µM | 89.5 | 110 | 121
HPLM + 10% dialyzed FBS, 0.0632 µM | 76.9 | 119 | 110
HPLM + 10% dialyzed FBS, 0.19 µM | 90.1 | 114 | 114
HPLM + 10% dialyzed FBS, 0.569 µM | 74.6 | 117 | 97.7
HPLM + 10% dialyzed FBS, 1.71 µM | 98.6 | 120 | 87.5
HPLM + 10% dialyzed FBS, 5.12 µM | 71.8 | 102 | 69.8
HPLM + 10% dialyzed FBS, 15.4 µM | 71.1 | 113 | 65.7
HPLM + 10% dialyzed FBS, 46.1 µM | 58.5 | 81.8 | 58.8
RPMI 5 mM glucose + 10% FBS, 0.000781 µM | 93.2 | 114 | 96.9
RPMI 5 mM glucose + 10% FBS, 0.00234 µM | 103 | 117 | 96.6
RPMI 5 mM glucose + 10% FBS, 0.00702 µM | 95.4 | 120 | 116
RPMI 5 mM glucose + 10% FBS, 0.0211 µM | 117 | 116 | 116
RPMI 5 mM glucose + 10% FBS, 0.0632 µM | 102 | 104 | 106
RPMI 5 mM glucose + 10% FBS, 0.19 µM | 112 | 123 | 104
RPMI 5 mM glucose + 10% FBS, 0.569 µM | 100 | 104 | 107
RPMI 5 mM glucose + 10% FBS, 1.71 µM | 81.4 | 108 | 105
RPMI 5 mM glucose + 10% FBS, 5.12 µM | 77.5 | 108 | 80.1
RPMI 5 mM glucose + 10% FBS, 15.4 µM | 65.9 | 114 | 81.9
RPMI 5 mM glucose + 10% FBS, 46.1 µM | 53.6 | 97.9 | 54.7
RPMI 5 mM glucose + 10% dialyzed FBS, 0.000781 µM | 108 | 116 | 101
RPMI 5 mM glucose + 10% dialyzed FBS, 0.00234 µM | 118 | 116 | 123
RPMI 5 mM glucose + 10% dialyzed FBS, 0.00702 µM | 121 | 117 | 109
RPMI 5 mM glucose + 10% dialyzed FBS, 0.0211 µM | 103 | 105 | 112
RPMI 5 mM glucose + 10% dialyzed FBS, 0.0632 µM | 99.7 | 108 | 112
RPMI 5 mM glucose + 10% dialyzed FBS, 0.19 µM | 113 | 116 | 109
RPMI 5 mM glucose + 10% dialyzed FBS, 0.569 µM | 115 | 120 | 98.1
RPMI 5 mM glucose + 10% dialyzed FBS, 1.71 µM | 91.8 | 113 | 92.4
RPMI 5 mM glucose + 10% dialyzed FBS, 5.12 µM | 85 | 98.7 | 75.2
RPMI 5 mM glucose + 10% dialyzed FBS, 15.4 µM | 90.2 | 104 | 76.3
RPMI 5 mM glucose + 10% dialyzed FBS, 46.1 µM | 54.2 | 85.2 | 55.7

AUC of viability dose-response curve
Conditions | HPLM + 10% dialyzed FBS | RPMI 5 mM glucose + 10% FBS | RPMI 5 mM glucose + 10% dialyzed FBS
[4] | 470 | 455 | 460
[5] | 413 | 439 | 416

O=C1Cc2cc(CCN3CCN(c4nsc5ccccc45)CC3)c(Cl)cc2N1
AUC of viability dose-response curve
Conditions | [4] | [5] | [6]
HPLM + 10% dialyzed FBS | 444 | 459 | 380
RPMI 5 mM glucose + 10% FBS | 460 | 469 | 366
RPMI 5 mM glucose + 10% dialyzed FBS | 457 | 464 | 362

CC(C(=O)O)c1ccc(-c2ccccc2)c(F)c1 (stereo not drawn)
AUC of viability dose-response curve
Conditions | [4] | [5] | [6]
HPLM + 10% dialyzed FBS | 464 | 424 | 442
RPMI 5 mM glucose + 10% FBS | 476 | 432 | 417
RPMI 5 mM glucose + 10% dialyzed FBS | 459 | 424 | 447

CC(=O)NC(C)c1ccc(Oc2ccc(OC(C)C)cc2)cc1 (stereo not drawn)
AUC of viability dose-response curve
Conditions | HPLM + 10% dialyzed FBS | RPMI 5 mM glucose + 10% FBS | RPMI 5 mM glucose + 10% dialyzed FBS
[5] | 454 | 440 | 450
[6] | 469 | 438 | 449
